According to PubChem BioAssay (NCI):
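Five concentrations, 48 hours, 96-well plates. Abbreviation: GI50, concentration required for 50% inhibition of growth. TGI: total growth inhibition.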 *1 amine or outer side, *2 acyl side, *3 side chain or, on linkers, in order; H or OH if unused. Where a SMILES comes first, the peptide text is derived from it. Bridges are numbered along the chain shown (N, C = ends). Roman numbers before positions name the chains, in order. [ ]: non-standard residue; d: D form. Actinocin(9to1) = Cc1c2oc3c(C)ccc(C(=O)[*:1])c3nc-2c(C(=O)[*:2])c(N)c1=O; NMeV = CN[CH](C(=O)O)C(C)C; Sar = CNCC(=O)O

What was measured:
Assay in all cases: inhibition of tumour cell growth, NCI panel, 48 h
HS 578T breast = tested on: HS 578T breast
NCI-H226 lung = tested on: NCI-H226 lung
SNB-75 CNS = tested on: SNB-75 CNS
SW-620 colon = tested on: SW-620 colon
MALME-3M melanoma = tested on: MALME-3M melanoma
OVCAR-5 ovarian = tested on: OVCAR-5 ovarian
T-47D breast = tested on: T-47D breast
TK-10 renal = tested on: TK-10 renal
K-562 leukemia = tested on: K-562 leukemia
SR leukemia = tested on: SR leukemia

| SMILES | GI50 (HS 578T breast) [µM] | TGI (HS 578T breast) [µM] | GI50 (NCI-H226 lung) [µM] | TGI (NCI-H226 lung) [µM] | GI50 (SNB-75 CNS) [µM] | TGI (SNB-75 CNS) [µM] | GI50 (SW-620 colon) [µM] | TGI (SW-620 colon) [µM] | TGI (MALME-3M melanoma) [µM] | TGI (OVCAR-5 ovarian) [µM] | TGI (T-47D breast) [µM] | TGI (TK-10 renal) [µM] | TGI (K-562 leukemia) [µM] | TGI (SR leukemia) [µM] |
| --- | --- | --- | --- | --- | --- | --- | --- | --- | --- | --- | --- | --- | --- | --- |
| C=C1C(=O)O[C@H]2[C@H]1CC/C(COC(=O)/C=C/C(=O)OC/C1=C/CC[C@@]3(C)O[C@H]3[C@H]3OC(=O)C(=C)[C@@H]3CC1)=C\CC[C@@]1(C)O[C@@H]21 | 3.22 | > 100 | 1.42 | 3.11 | 3.47 | 66.9 | 0.338 | 1.11 | – | – | – | – | – | – |
| Cn1c(O)c(/C=N/c2ncccn2)c(=O)[nH]c1=O | – | > 100 | – | > 100 | – | > 100 | – | > 100 | > 100 | > 100 | > 100 | > 100 | – | – |
| Oc1ccc(O)c(Sc2nnc(CCCCCCCCc3nnc(Sc4cc(O)ccc4O)o3)o2)c1 | – | – | – | > 100 | – | > 100 | – | > 100 | > 100 | > 100 | – | > 100 | > 100 | – |
| CC(=O)NCC1OC2COC(c3ccccc3)OC2C2N=C(c3ccccc3)OC12 (configuration not stated) | – | > 100 | – | > 100 | – | > 100 | – | > 100 | > 100 | > 100 | 57.7 | > 100 | > 100 | – |
| O=C1/C(=C/c2cccs2)N=C(c2ccccc2)N1c1nc2ccccc2s1 | – | 38.9 | – | > 100 | – | – | – | > 100 | – | > 100 | > 100 | > 100 | > 100 | > 100 |
| Cn1c(=O)[nH]n(-c2ccc3ccccc3c2)c1=O | – | > 100 | – | > 100 | – | > 100 | – | > 100 | > 100 | > 100 | > 100 | > 100 | > 100 | – |
| Cc1ccc(Cl)c2c(=O)cc(-c3ccccc3)[nH]c12 | – | – | – | > 100 | – | 87.1 | – | > 100 | > 100 | > 100 | – | > 100 | > 100 | > 100 |
| S=c1oc(CCCCCCCCc2nn(CNc3ccc(Cl)cc3)c(=S)o2)nn1CNc1ccc(Cl)cc1 | – | – | – | > 100 | – | > 100 | – | > 100 | > 100 | > 100 | – | > 100 | > 100 | – |
| Cc1cn([C@@H]2C[C@](C)(CO)N(C)O2)c(=O)[nH]c1=O | – | > 100 | – | > 100 | – | > 100 | – | > 100 | > 100 | > 100 | – | > 100 | > 100 | > 100 |
| OCC1c2ccccc2-n2nc(-c3ccccc3)c(O)c21 (configuration not stated) | – | > 100 | – | > 100 | – | > 100 | – | 67.3 | 33.3 | > 100 | > 100 | 34.1 | 53 | – |
| Cc1ccc(S(=O)(=O)CC2CCCn3c2c(C#N)c2ccccc23)cc1 (configuration not stated) | – | > 100 | – | > 100 | – | > 100 | – | > 100 | – | > 100 | > 100 | > 100 | > 100 | – |
| Cc1c2oc3c(C)ccc(C(=O)NC4C(=O)NC(Cc5ccc(O)cc5)C(=O)N5CCCC5C(=O)N(C)CC(=O)N(C)C(C(C)C)C(=O)OC4C)c3nc-2c(C(=O)NC2C(=O)NC(Cc3ccc(O)cc3)C(=O)N3CCCC3C(=O)N(C)CC(=O)N(C)C(C(C)C)C(=O)OC2C)c(N)c1=O (configuration not stated) (I: TYP[Sar][NMeV] / II: TYP[Sar][NMeV]; ester I:1-I:C, II:1-II:C; linker I:N-II:N via Actinocin(9to1); configuration not given here) | – | 67.3 | – | > 100 | – | 20.3 | – | > 100 | 44.3 | > 43.8 | > 79.9 | > 80.3 | > 100 | – |
| NC(=O)CC[C@H]1C(=O)N=C(N)N1C(=O)OCc1ccccc1 | – | > 100 | – | > 100 | – | > 100 | – | > 100 | > 100 | > 100 | – | > 100 | > 100 | > 100 |
| CC(C)(C)C(=O)O[C@H]1C=C[C@@H](O)[C@@H]2[C@H]1[C@@H]1C=C[C@H]2C1 | – | > 100 | – | – | – | > 100 | – | > 100 | – | 6.42 | > 100 | > 100 | > 100 | > 100 |
| Cc1cn(C2CC(SCCO)C(CO)O2)c(=O)[nH]c1=O (configuration not stated) | – | – | – | > 100 | – | > 100 | – | > 100 | > 100 | > 100 | > 100 | – | > 100 | > 100 |
| COC(C/C=C\C=C\CC/C=C/CC(C)/C=C/C(=C\C(=O)O)CC(=O)O)/C(C)=C\C=C(/C)C(=O)O (configuration not stated) | – | > 100 | – | – | – | > 100 | – | > 100 | > 100 | > 100 | – | > 100 | – | > 100 |
| O=C(NCCNCCO)N/N=C/c1ccccc1 | – | – | – | > 100 | – | > 100 | – | > 100 | > 100 | – | – | > 100 | > 100 | – |
